System: B. juncea seed
Assay: EMS kill curves: germination of B. juncea seed treated with various concentrations of EMS
Format: in vivo, Brassica juncea
Details: for % germination: seeds soaked 18 hours, germination box 25° C., 7 days
Experimental: A bulk population (99SJ-1309) was created for this experiment from 8 different low glucosinolate and low erucic acid B. juncea breeding lines. These lines were selected for a range of quality and agronomic traits such as oil content and seed size. 500 seeds of the bulk population were used for each treatment of the following experiment. The seeds were soaked in various concentrations EMS for 18 hours and then washed 3 times. A sub-sample of 100 seeds was placed in a germination box at 25° C. for 7 days. After 7 days, the number of seeds that germinated and produced a healthy radicle was calculated. All seeds that were treated with EMS took at least 2 days longer to germinate than controls.
EMS treatment of seed affected the germination rate (FIG. 1, Table 2 and Table 3). […] This experiment was not replicated. Its purpose was to evaluate the effect of EMS on seed germination rate. The first experiment was designed to test a broad range of EMS application rates and the second experiment was to reduce the range of EMS treatment to develop the desirable mutations (Table 3).

SMILES: CCOS(C)(=O)=O [EMS, ethyl methane sulfonate]
- germination rate versus expectation (0.36% EMS treatment rate): much lower germination rate than expected
- germination rate (0.48% EMS, text summary of Experiment 1): approximately 50%
- delay of germination versus controls (all seeds treated with EMS): at least 2 days
- germination rates (highest concentrations of EMS): less than 50%
- % germination (kill curve #1 (Treatment 1), EMS 0.16% w/v): 93%
- % germination (kill curve #1 (Treatment 1), EMS 0.33% w/v): 90%
- % germination (kill curve #1 (Treatment 1), EMS 0.48% w/v): 61%
- % germination (kill curve #1 (Treatment 1), EMS 0.64% w/v): 39%
- % germination (kill curve #2 (Treatment 2), EMS 0.36% w/v): 57%
- % germination (kill curve #2 (Treatment 2), EMS 0.42% w/v): 68%
- % germination (kill curve #2 (Treatment 2), EMS 0.48% w/v): 43%
- % germination (kill curve #2 (Treatment 2), EMS 0.56% w/v): 46%
- effect on germination rate (lowest concentrations (0.16 and 0.33%)): little effect on germination rate

Reference: patent US9161502B2, “Brassica juncea lines with a canola fatty acid profile” (PIONEER HI BRED INTERNATIONAL INC, priority 2007, dated 2015)
